Earlier results on 1 substance are cited in patent EP4729553A1, “BLOCK POLYMER, AND COLORING MATERIAL DISPERSION AND INK COMPOSITION USING SAME” (Mikuni Shikiso Kabushiki Kaisha, priority 2023, dated 2024).

The conditions of the data set: monomer, trade product data.

As a reminder, the LogP is the decadic logarithm of the partition coefficient of the neutral form, usually between octanol and water. With “ethoxylated o-phenylphenol acrylate [A-LEN10]”, the LogP was 3.98.
